Key:
prostate [1] = assay: Intraprostatic injection in rats: prostate weight / size; set-up: species or system Sprague-Dawley rats; settings: rat, in vivo
prostate [2] = assay: Histology (hematoxylin and eosin) of injected rat prostates; set-up: species or system Sprague-Dawley rats; settings: in vivo
Description: (§1) Rats were anesthetized with isoflurane gas. The hair was shaved and the incision region was scrubbed with Betadine. A lower abdominal midline incision was made providing exposure to the bladder and prostate. 0.1 mL of toxin or saline was injected into each right and left ventral lobe using a 30-gauge needle. The abdominal wall and skin were then closed in two layers. After 2 weeks the animals were sacrificed by an overdose of sodium Pentobarbital (200 mg/kg i.p.) The prostates were removed en bloc along with the bladder and urethra. The prostates were then carefully dissected from the bladder neck and urethra, weighed and fixed in 10% phosphate buffered formalin.
The fixed prostates were embedded in paraffin and sectioned at a thickness of 4 microns. Sections were stained with hematoxylin and eosin and analyzed for morphology. […] Under 400× magnification, four random areas of the ventral prostate from each animal were examined and the total numbers of stained and unstained cells were counted in the entire field. […] The mean number of stained and unstained cells was determined for each animal.

ventral prostate [3] = assay: TUNEL stain for apoptosis in prostate sections; set-up: species or system Sprague-Dawley rats; settings: rat, in vivo
Description: (§2) The fixed prostates were embedded in paraffin and sectioned at a thickness of 4 microns. Sections were stained with hematoxylin and eosin and analyzed for morphology. Immunohistochemical analysis was performed on prostate sections for evidence of apoptosis with TUNEL stain (terminal deoxynucleotidyl-mediated deoxyuridine triphosphate nick end labeling) using a commercially available kit (GenScript Corporation, Piscataway, N.J.), and for cellular proliferation with PCNA stain (proliferating cell nuclear antigen) using a commercially available kit (Invitrogen Corporation, Camarillo, Calif.). A stained slide from each animal was randomly assigned a number in a blind fashion. Under 400× magnification, four random areas of the ventral prostate from each animal were examined and the total numbers of stained and unstained cells were counted in the entire field. This was done for both TUNEL and PCNA stained slides for each animal. The mean number of stained and unstained cells was determined for each animal.

ventral prostate [4] = assay: PCNA stain for cellular proliferation in prostate sections; set-up: species or system Sprague-Dawley rats; settings: rat, in vivo
Description: as §2

[5] = Body weight and complications after intraprostatic injection; set-up: species or system Sprague-Dawley rats; settings: rat, in vivo
Text: Eighteen adult male Sprague-Dawley rats (420-560 g) were used in this study. The animals were housed in the animal care center under controlled lighting conditions (lights on 6 AM-6 PM), with food and water always available. The animals were monitored for behavior, food and water intake, and weight. Subsequent experiments were approved by the University of Toledo's Institutional Animal Care and Use Committee.
as §1

prostate [6] = settings: rat, in vivo; cited from earlier work

Botulinum toxin type A [BTA]
Prostate Wt (grams) Mean (prostate [1]): 2.627 grams | Prostate Wt /100 g Body Wt Mean (prostate [1]): 0.586 | prostate size / weight (in words) (prostate [1]): did not show a statistically significant decrease in prostatic weight | histology of prostate (in words) (prostate [2]): prostatic atrophy of the glandular component with flattening of the epithelial lining | TUNEL Assay # of Apoptotic Cells Mean (ventral prostate [3]): 211.1 | number of apoptotic cells, TUNEL staining (in words) (ventral prostate [3]): significant increase in the number of apoptotic cells | PCNA Assay # of Proliferating Cells Mean (ventral prostate [4]): 26.2 | cellular proliferation, PCNA staining (in words) (ventral prostate [4]): significant increase in cellular proliferation | 2 wks Post-Injection Wt (grams) Mean [5]: 449 grams | Change in Body Weight Mean [5]: −51.667 | Pre-Injection Wt (grams) Mean [5]: 501 grams | body weight (in words) [5]: significant loss in body weight | prostatic weight (Doggweiler et al.) (prostate [6]): decrease in prostatic weight

— patent US8133491B1, “Compositions and methods for treatment of hyperplastic disorders” (priority 2009, dated 2012)
